From ChEMBL document CHEMBL1201862, “PubChem BioAssay data set” (2004)
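Cells were grown in 96-well plates and exposed to each compound for 48 hours at five concentrations; endpoints were interpolated linearly between bracketing concentrations, or set to the highest concentration if not reached. GI50 = concentration required for 50% inhibition of growth.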 Active and inactive are the calls of the source. No stated cut-off is given here; in the data, active = GI50 up to about 1.1 µM and inactive = higher.

What was measured:
Assay in all cases: NCI-60 cell line screen, 48 h
SF-539 = test system: SF-539
SF-295 = test system: SF-295
A549 = test system: A549
SK-MEL-28 = test system: SK-MEL-28
SK-OV-3 = test system: SK-OV-3
UACC-62 = test system: UACC-62
NCI-H460 = test system: NCI-H460
OVCAR-5 = test system: OVCAR-5
HCT-116 = test system: HCT-116
OVCAR-4 = test system: OVCAR-4
BT-549 = test system: BT-549
SNB-19 = test system: SNB-19
A498 = test system: A498
SK-MEL-2 = test system: SK-MEL-2
MDA-N = test system: MDA-N
MDA-MB-231 = test system: MDA-MB-231
COLO 205 = test system: COLO 205
KM12 = test system: KM12
EKVX = test system: EKVX
MCF7 = test system: MCF7
TK-10 = test system: TK-10
SF-268 = test system: SF-268
MOLT-4 = test system: MOLT-4
ACHN = test system: ACHN
NCI-H226 = test system: NCI-H226
HOP-92 = test system: HOP-92
SNB-75 = test system: SNB-75
Malme-3M = test system: Malme-3M
T47D = test system: T47D
HCT-15 = test system: HCT-15
CCRF-CEM = test system: CCRF-CEM
SW-620 = test system: SW-620
OVCAR-3 = test system: OVCAR-3
CAKI-1 = test system: CAKI-1
HT-29 = test system: HT-29
IGROV-1 = test system: IGROV-1
OVCAR-8 = test system: OVCAR-8
UACC-257 = test system: UACC-257
786-0 = test system: 786-0
Hs-578T = test system: Hs-578T
UO-31 = test system: UO-31
K562 = test system: K562
HL-60 = test system: HL-60
NCI-H23 = test system: NCI-H23
SK-MEL-5 = test system: SK-MEL-5
PC-3 = test system: PC-3
M14 = test system: M14
U-251 = test system: U-251
NCI-H522 = test system: NCI-H522
NCI/ADR-RES = test system: NCI/ADR-RES
LOX IMVI = test system: LOX IMVI
SN12C = test system: SN12C
HCC 2998 = test system: HCC 2998
RXF 393 = test system: RXF 393
RPMI-8226 = test system: RPMI-8226
SR = test system: SR
HOP-62 = test system: HOP-62
DU-145 = test system: DU-145
MDA-MB-435 = test system: MDA-MB-435

With `O=C(ON=C1c2ccccc2C(Br)C(Br)c2ccccc21)c1ccccc1` (stereo not drawn) the GI50 (SF-539) was 7.01 µM (inactive), the GI50 (SF-295) was 18.5 µM (inactive) and the GI50 (A549) was 20.6 µM (inactive). For the same compound, the GI50 (SK-MEL-28) was 18.2 µM (inactive), the GI50 (SK-OV-3) was 18.6 µM (inactive) and the GI50 (UACC-62) was 16.7 µM (inactive). The GI50 (NCI-H460) was 13.4 µM (inactive), the GI50 (OVCAR-5) was 18.8 µM (inactive) and the GI50 (HCT-116) was 14.6 µM (inactive). For the same compound, the GI50 (OVCAR-4) was 13.2 µM (inactive), the GI50 (BT-549) was 19.6 µM (inactive) and the GI50 (SNB-19) was 20.7 µM (inactive). The GI50 (A498) was 25.2 µM (inactive), the GI50 (SK-MEL-2) was 30.2 µM (inactive) and the GI50 (MDA-N) was 17.8 µM (inactive). The GI50 (MDA-MB-231) was 16.7 µM (inactive), the GI50 (COLO 205) was 15.8 µM (inactive) and the GI50 (KM12) was 17.9 µM (inactive). The GI50 (EKVX) was 23.1 µM (inactive), the GI50 (MCF7) was 14.9 µM (inactive) and the GI50 (TK-10) was 15.8 µM (inactive). The GI50 (SF-268) was 20.7 µM (inactive), the GI50 (MOLT-4) was 2.04 µM (inactive) and the GI50 (ACHN) was 17.7 µM (inactive). The GI50 (NCI-H226) was 18 µM (inactive), the GI50 (HOP-92) was 1.17 µM (inactive) and the GI50 (SNB-75) was 21.6 µM (inactive). The GI50 (Malme-3M) was 20.7 µM (inactive), the GI50 (T47D) was 9.57 µM (inactive) and the GI50 (HCT-15) was 17.6 µM. The GI50 (CCRF-CEM) was 673 nM (active), the GI50 (SW-620) was 8.49 µM (inactive) and the GI50 (OVCAR-3) was 14.8 µM (inactive). The GI50 (CAKI-1) was 9.48 µM (inactive), the GI50 (HT-29) was 17.1 µM (inactive) and the GI50 (IGROV-1) was 2.44 µM (inactive). For the same compound, the GI50 (OVCAR-8) was 9.18 µM (inactive), the GI50 (UACC-257) was 15.6 µM (inactive) and the GI50 (786-0) was 9.62 µM (inactive). For the same compound, the GI50 (Hs-578T) was 21.5 µM (inactive), the GI50 (UO-31) was 3.79 µM (inactive) and the GI50 (K562) was 2.95 µM (inactive). For the same compound, the GI50 (HL-60) was 590 nM (active), the GI50 (NCI-H23) was 19.4 µM (inactive) and the GI50 (SK-MEL-5) was 17.1 µM (inactive). For the same compound, the GI50 (PC-3) was 19.8 µM (inactive), the GI50 (M14) was 17.3 µM (inactive) and the GI50 (U-251) was 17.7 µM (inactive). The GI50 (NCI-H522) was 1.69 µM (inactive), the GI50 (NCI/ADR-RES) was 22.8 µM (inactive) and the GI50 (LOX IMVI) was 4.28 µM (inactive). The GI50 (SN12C) was 20.7 µM (inactive), the GI50 (HCC 2998) was 21.8 µM (inactive) and the GI50 (RXF 393) was 14.1 µM (inactive). The GI50 (RPMI-8226) was 4.57 µM (inactive), the GI50 (SR) was 3.09 µM (inactive) and the GI50 (HOP-62) was 12.7 µM (inactive). For the same compound, the GI50 (DU-145) was 17.5 µM (inactive) and the GI50 (MDA-MB-435) was 17.3 µM (inactive).

With `CCCCCCCCCCCCCCC[C@@H](O)C[N+](C)(C)CCO` the GI50 (SF-539) was 2.39 µM (inactive), the GI50 (SF-295) was 2.37 µM (inactive) and the GI50 (A549) was 3.49 µM (inactive). The GI50 (SK-MEL-28) was 19.3 µM (inactive), the GI50 (SK-OV-3) was 7.76 µM (inactive) and the GI50 (UACC-62) was 3.92 µM (inactive). For the same compound, the GI50 (NCI-H460) was 1.52 µM (inactive), the GI50 (OVCAR-5) was 2.24 µM (inactive) and the GI50 (HCT-116) was 3.99 µM (inactive). The GI50 (OVCAR-4) was 4.2 µM (inactive), the GI50 (BT-549) was 0.759 µM (active) and the GI50 (SNB-19) was 1.63 µM (inactive). The GI50 (A498) was 19.1 µM (inactive), the GI50 (SK-MEL-2) was 9.55 µM (inactive) and the GI50 (MDA-N) was 5.98 µM (inactive). For the same compound, the GI50 (MDA-MB-231) was 1.8 µM (inactive), the GI50 (COLO 205) was 2.57 µM (inactive) and the GI50 (KM12) was 0.841 µM (active). For the same compound, the GI50 (EKVX) was 8.77 µM (inactive), the GI50 (MCF7) was 5.85 µM (inactive) and the GI50 (TK-10) was 1.31 µM (inactive). The GI50 (SF-268) was 1.72 µM (inactive), the GI50 (MOLT-4) was 2.17 µM (inactive) and the GI50 (ACHN) was 3.95 µM (inactive). The GI50 (NCI-H226) was 2.79 µM (inactive), the GI50 (HOP-92) was 1.27 µM (inactive) and the GI50 (SNB-75) was 0.597 µM (active). For the same compound, the GI50 (Malme-3M) was 2.81 µM (inactive), the GI50 (T47D) was 6.82 µM (inactive) and the GI50 (HCT-15) was 2.6 µM. The GI50 (CCRF-CEM) was 1250 nM (inactive), the GI50 (SW-620) was 4.14 µM (inactive) and the GI50 (OVCAR-3) was 4.42 µM (inactive). For the same compound, the GI50 (CAKI-1) was 0.977 µM (active), the GI50 (HT-29) was 1.2 µM (inactive) and the GI50 (IGROV-1) was 0.434 µM (active). For the same compound, the GI50 (OVCAR-8) was 5.13 µM (inactive), the GI50 (UACC-257) was 10.2 µM (inactive) and the GI50 (786-0) was 0.927 µM (active). The GI50 (Hs-578T) was 1.38 µM (inactive), the GI50 (UO-31) was 7.01 µM (inactive) and the GI50 (K562) was 2.41 µM (inactive). For the same compound, the GI50 (HL-60) was 149 nM (active), the GI50 (NCI-H23) was 2.06 µM (inactive) and the GI50 (SK-MEL-5) was 2.72 µM (inactive). The GI50 (PC-3) was 1.06 µM (active), the GI50 (M14) was 3.62 µM (inactive) and the GI50 (U-251) was 1.73 µM (inactive). For the same compound, the GI50 (NCI-H522) was 1.42 µM (inactive), the GI50 (NCI/ADR-RES) was 13.6 µM (inactive) and the GI50 (LOX IMVI) was 2.07 µM (inactive). For the same compound, the GI50 (SN12C) was 5.61 µM (inactive), the GI50 (HCC 2998) was 1.8 µM (inactive) and the GI50 (RXF 393) was 1.11 µM (active). For the same compound, the GI50 (RPMI-8226) was 2.21 µM (inactive), the GI50 (SR) was 1.72 µM (inactive) and the GI50 (HOP-62) was 2.88 µM (inactive). The GI50 (DU-145) was 7.66 µM (inactive) and the GI50 (MDA-MB-435) was 4.84 µM (inactive).
